According to ChEMBL document CHEMBL2321749, “Incorporation of rapid thermodynamic data in fragment-based drug discovery” (J Med Chem, 2013):

Legend:
Steroid Delta-isomerase [1] = biological target: T1, Steroid Delta-isomerase (Pseudomonas putida, UniProt P07445); assay: Binding affinity to Pseudomonas putida KSI by isothermal titration calorimetry
T1 sequence (P07445 whole entry): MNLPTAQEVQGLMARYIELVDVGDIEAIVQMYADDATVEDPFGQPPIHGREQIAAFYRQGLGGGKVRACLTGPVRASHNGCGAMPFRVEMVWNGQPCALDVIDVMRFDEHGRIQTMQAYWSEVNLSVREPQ

[2] = biological target: T2, Steroid Delta-isomerase (Pseudomonas putida) (UniProt P07445); assay: Ratio of KD for Pseudomonas putida KSI by surface plasmon resonance analysis to KD for Pseudomonas putida KSI by surface plasmon resonance analysis
T2 sequence (whole entry): T1 sequence (P07445 whole entry)

Steroid Delta-isomerase [3] = biological target: T1, Steroid Delta-isomerase; assay: Binding affinity to Pseudomonas putida KSI by surface plasmon resonance analysis

| SMILES | Kd (Steroid Delta-isomerase [1]) [µM] | Kd (Steroid Delta-isomerase [3]) [µM] | Ratio [2] |
| --- | --- | --- | --- |
| Cn1cc(C(N)=O)c2ccccc21 | 63 | – | – |
| NC(=O)Nc1cccc(C(F)(F)F)c1 | 46 | – | – |
| CN1CCC2(C)c3cc(O)ccc3N(C)C12 (stereo not drawn) | 180 | – | 1.8 |
| NC(=O)/C=C/c1cccc(C(F)(F)F)c1 | 50 | – | – |

Further lines, with some results ahead:

| Kd (Steroid Delta-isomerase [1]) [µM] | Kd (Steroid Delta-isomerase [3]) [µM] | SMILES | Ratio [2] |
| --- | --- | --- | --- |
| 22 | – | Cc1nnc2ccc(N3CCCC3)nn12 | – |
| 16 | 16 | C[C@H](CCC(=O)O)[C@H]1CC[C@H]2[C@@H]3CC[C@@H]4C[C@H](O)CC[C@]4(C)[C@H]3C[C@H](O)[C@]12C [DEOXYCHOLIC ACID] | – |
